Test results as given in ChEMBL document CHEMBL1146434, “Michellamines D-F, new HIV-inhibitory dimeric naphthylisoquinoline alkaloids, and korupensamine E, a new antimalarial monomer, from Ancistrocladus korupensis” (J Nat Prod, 1997).
Values after ≈ are worked out from the molar mass of the structure shown.

What was measured:
Plasmodium falciparum = assay: Antimalarial activity against Plasmodium falciparum; assay type: functional, organism-based
[1] = test system: Human immunodeficiency virus 1; assay: Antiviral activity against HIV1 RF infected in human CEM-SS cells; assay type: functional, organism-based; conditions: Human immunodeficiency virus 1, RF
CEM-SS = assay: Cytotoxicity against human CEM-SS cells; assay type: cell-based
[2] = test system: Human immunodeficiency virus 1; assay: Antiviral activity against HIV1 OC100 infected in human CEM-SS cells; assay type: functional, organism-based; conditions: Human immunodeficiency virus 1, CEM-SS
[3] = test system: Human immunodeficiency virus 1; assay: Antiviral activity against HIV1 A17 infected in human MT2 cells; assay type: functional, organism-based; conditions: Human immunodeficiency virus 1, A17, MT2
[4] = test system: Human immunodeficiency virus 1; assay: Antiviral activity against HIV1 G9106 infected in human MT2 cells; assay type: functional, organism-based; conditions: Human immunodeficiency virus 1, G9106, MT2

| SMILES | IC50 (Plasmodium falciparum) [µg/mL] | EC50 [1] [µM] | EC50 [2] [µM] | EC50 [3] [µM] | EC50 [4] [µM] | IC50 (CEM-SS) [µM] |
| --- | --- | --- | --- | --- | --- | --- |
| COc1cc(O)c(-c2ccc(OC)c3c(O)cc(C)cc23)c2c1[C@@H](C)N[C@H](C)C2 [KORUPENSAMINE E] | 2 (≈ 5.08 µM) |  |  |  |  |  |
| COc1cc(O)c(-c2cc(-c3cc(-c4c(O)cc(O)c5c4C[C@@H](C)N[C@@H]5C)c4cc(C)cc(OC)c4c3O)c(O)c3c(OC)cc(C)cc23)c2c1[C@@H](C)N[C@H](C)C2 [MICHELLAMINE D] |  | 3 | 20 | 10 | 11 | 17 |
| COc1cc(C)cc2c(-c3c(O)cc(O)c4c3C[C@@H](C)N[C@@H]4C)cc(-c3cc(-c4c(O)cc(O)c5c4C[C@@H](C)N[C@@H]5C)c4cc(C)cc(OC)c4c3O)c(O)c12 [MICHELLAMINE A] |  | 6 | 23 | 18 | 19 |  |

Continued, in another order:

| IC50 (Plasmodium falciparum) [µg/mL] | EC50 [1] [µM] | EC50 [2] [µM] | EC50 [3] [µM] | EC50 [4] [µM] | SMILES | IC50 (CEM-SS) [µM] |
| --- | --- | --- | --- | --- | --- | --- |
|  | 4 | 11 | 13 | 15 | COc1cc(C)cc2c(-c3c(O)cc(O)c4c3C[C@H](C)N(C)[C@@H]4C)cc(-c3cc(-c4c(O)cc(O)c5c4C[C@@H](C)N[C@@H]5C)c4cc(C)cc(OC)c4c3O)c(O)c12 [MICHELLAMINE E] | 23 |
|  | 2 | 9 | 11 | 8 | COc1cc(O)c(-c2cc(-c3cc(-c4c(O)cc(O)c5c4C[C@@H](C)N[C@@H]5C)c4cc(C)cc(OC)c4c3O)c(O)c3c(OC)cc(C)cc23)c2c1C(C)=N[C@H](C)C2 [MICHELLAMINE F] | 188 |
